1 compound from US11091786B2, “Butelase-mediated peptide ligation” (Nanyang Technological University, priority 2015, dated 2021) can be followed below.

Common to all, as to format: cell-based
One assay deals with E. cloacae DM 09800. As to conditions: DM 09800, 18 h. On the procedure:
(§1) The following protocol was applied to the radial diffusion assay.
(§2) 1. A single colony was picked and transferred into a 5 ml tube containing 2.5 ml TSB. The culture was shaken at 37° C. for 18 h.
(§3) 2. 50 μl of the stationary phase culture was diluted to 2.5 mL of autoclaved TSB (1:50 dilution) and shaken at 37° C. for another 3 h.
(§4) 3. This subculture was centrifuged at 5000 rpm for 5 min and the supernatant was discarded. The residual cells were washed with cold sterile 10 mM phosphate buffer, pH 7.4 and the buffer was discarded after centrifuge. 5 ml of the same buffer was added to resuspend the cells and its bacteria concentration was determined by measuring its optical density at 620 nm.
(§5) 4. 10 ml of antoclaved, molten underlay gel agar was transferred to a 15-ml eppendorf tube and mixed with 4×10^6 CFU of bacteria by vortexing. The mixture was then poured into a petri dish and gelled in less than […]. Wells were punched against the gel using a Pasteur pippette.
(§6) 5. Peptides to be tested were serially diluted and 3.5 μl of each sample was added to the well. The plates were incubated at 37° C. for 3 h with gel-side up.
(§7) 6. Next, each underlay gel was covered with 10 ml of overlay gel. After the gel solidified, the plates were turned gel-side up and incubated at 37° C. for overnight.
(§8) 7. The following morning, all the plates were taken out and the zone diameters were measured with ruler. All the samples were tested in duplicates and the results were averaged. The final minimum inhibition concentration (MIC) was determined using excel.
(§9) There is a growing interest to develop peptide-based antibiotics (Annu Rev Immunol. 1995, 13, 61-92; J Intern Med. 2003, 254, 197-215; Cent Eur J Biol 2007, 2, 1-33; Int J Pept Res Ther. 2010, 16, 199-213) because, compared with conventional antibiotics, they are less likely to develop drug resistance and have fewer side effects (J Med Chem. 2015, 58, 6533-6548; Biochemistry-Us. 2000, 39, 7159-7169; Eur J Biochem. 2000, 267, 3289-3300; Nucleic Acids Res. 2012, 40, W199-204). To apply the presently disclosed enzymatic method in preparing dendrimeric antimicrobials, inventors synthesized two antimicrobials 12 (bivalent) and 13 (tetravalent) (MS shown in supporting information) which harbored a tetrapeptide RLYR (SEQ ID NO:121) as the antibacterial sequence (Eur J Biochem. 2002, 269, 923-932) by ligating N-acetylated thiodepsipeptide 10 Ac-RLYRN-thioglc-V (SEQ ID NO:120) with dendron core 2 and 6 respectively. The RLYR (SEQ ID NO:121) tetrapeptide contains a BHHB motif (B=basic, H=hydrophobic) which is commonly found in certain potent and broad-spectrum β-stranded antimicrobial peptides (BioDrugs. 2013, 27, 479-493) such as PG (protegrins) (Febs Lett. 1993, 327, 231-236) and RTD-1 (rhesus monkey theta defensin) (Science. 1999, 286, 498-502). This consensus motif with positive charged and hydrophobic residues was successfully used as a dendrimeric antimicrobial in 2002 (Eur J Biochem. 2002, 269, 923-932). Such short peptide-based dendrimeric antimicrobials are broad-spectrum antibiotics and kill bacterial cells through electrostatic and hydrophobic interactions with the negatively charged microbial cytoplasmic membranes (Biochemistry-Us. 2009, 48, 5642-5657). Using a radial diffusion assay, inventors tested the antimicrobial activities against E. coli and S. aureus of these two dendrimeric peptides together with prototypical monomer 11 RLYR (SEQ ID NO:121), mono-, tri-lysine dendron core 2 and 6 for comparison. All assays were performed under a high-salt condition (100 mM NaCl) to simulate physiological conditions. […] The tetravalent dendrimeric structure 13 had further improved antimicrobial activities with MICs<3 μM against both strains. When testing 13 against several drug-resistant strains under high-salt condition, the tetramer construct was broadly active against all six tested strains with MICs ranging from 0.87 to 4.8 μM. […]

Another assay has as its system E. coli DM 04604. The following applies: DM 04604, 18 h. The protocol: as §1, §2, §3, §4, §5, §6, §7, §8, §9
For another assay, the system named is E. coli DU 09777. As to conditions: DU 09777, 18 h. On the procedure: as §1, §2, §3, §4, §5, §6, §7, §8, §9
Another assay concerns K. species DR 13779. As to conditions: 18 h. On the procedure:
as §1, §2, §3, §4, §5, §6, §7, §8, §9

For a further assay, the system named is P. aeruginosa DM 14158. The following applies: DM 14158, 18 h. The protocol:
as §1, §2, §3, §4, §5, §6, §7, §8, §9

The subject of the next assay is S. aureus DB 14329. The following applies: DB 14329, 18 h. The protocol: as §1, §2, §3, §4, §5, §6, §7, §8, §9
The test system of another assay is drug-resistant strains. The protocol:
as §1, §2, §3, §4, §5, §6, §7, §8, §9

Structures are written as SMILES. ≈ marks a conversion by molar mass, not a printed value. Bridge positions count the residues as written; N and C are the ends. Square brackets hold non-standard residues; d marks the D form. Peptide text beside a SMILES is read from it. I, II: the chains in the order shown. βAla = NCCC(=O)O

The term MIC denotes the least concentration at which growth counts as inhibited. A low value points to a more susceptible organism. As to `CC[C@H](C)[C@H](NC(=O)[C@H](CCCNC(=N)N)NC(=O)[C@H](CC(N)=O)NC(=O)[C@H](CCCNC(=N)N)NC(=O)[C@H](Cc1ccc(O)cc1)NC(=O)[C@H](CC(C)C)NC(=O)[C@H](CCCNC(=N)N)NC(C)=O)C(=O)NCCC(=O)NCCCC[C@H](NC(=O)CCNC(=O)[C@@H](NC(=O)[C@H](CCCNC(=N)N)NC(=O)[C@H](CC(N)=O)NC(=O)[C@H](CCCNC(=N)N)NC(=O)[C@H](Cc1ccc(O)cc1)NC(=O)[C@H](CC(C)C)NC(=O)[C@H](CCCNC(=N)N)NC(C)=O)[C@@H](C)CC)C(=O)NCCCC[C@H](NC(=O)[C@H](CCCCNC(=O)CCNC(=O)[C@@H](NC(=O)[C@H](CCCNC(=N)N)NC(=O)[C@H](CC(N)=O)NC(=O)[C@H](CCCNC(=N)N)NC(=O)[C@H](Cc1ccc(O)cc1)NC(=O)[C@H](CC(C)C)NC(=O)[C@H](CCCNC(=N)N)NC(C)=O)[C@@H](C)CC)NC(=O)CCNC(=O)[C@@H](NC(=O)[C@H](CCCNC(=N)N)NC(=O)[C@H](CC(N)=O)NC(=O)[C@H](CCCNC(=N)N)NC(=O)[C@H](Cc1ccc(O)cc1)NC(=O)[C@H](CC(C)C)NC(=O)[C@H](CCCNC(=N)N)NC(C)=O)[C@@H](C)CC)C(=O)N[C@@H](Cc1ccc(O)cc1)C(N)=O` [Tetramer 13, (Ac-RLYRNRIβA)4K2KY] (I: Ac-RLYRNRI[βAla]KKY-NH2 / II: Ac-RLYRNRI[βAla]K / III: Ac-RLYRNRI[βAla] / IV: Ac-RLYRNRI[βAla]; amide I:9-IV:C, I:10-II:C, II:9-III:C), the MIC was 0.9 µM (≈ 4.42 µg/mL) against E. cloacae DM 09800; 4.5 µM (≈ 22.1 µg/mL) against E. coli DM 04604; 2.2 µM (≈ 10.8 µg/mL) with E. coli DU 09777; 1.5 µM (≈ 7.36 µg/mL) against K. species DR 13779; 2.3 µM (≈ 11.3 µg/mL) against P. aeruginosa DM 14158; 4.8 µM (≈ 23.5 µg/mL) in the assay on S. aureus DB 14329. Moreover, the “MICs, broad-spectrum” value with drug-resistant strains (all strains tested, including several drug-resistant bacterial strains) was less than 5 µM. Further, the “MICs against all six tested drug-resistant strains” value with drug-resistant strains (six drug-resistant strains, high-salt condition) was 0.87 to 4.8 µM.
